The values that follow come from patent publication US20140363810A1, “METHOD OF MEASURING HUMAN CYP3A INDUCIBILITY” (SEKISUI MEDICAL CO., LTD., priority 2002, published 2014).

The test system of data set [1] is CYP3A4 inducibility (luciferase reporter AdCYP3A4-362). The data set can be described thus: in vivo assay, luciferase activity in liver S-9 of mice given AdCYP3A4-362 virus. The conditions noted are these: 100 mg/kg intraperitoneally once a day for three days, liver two days after virus. Here is the method: (§1) The initial plan for viral administration was an intravenous route through the tail vein. […] Therefore, the route was changed to intraperitoneal administration so that the animal could not acutely respond to the virus. […] Two days after virus administration, each animal was dissected to remove the organ of interest (liver). The liver was homogenized and centrifuged at 9,000×g. Luciferase activity of the supernatant (S-9) was measured (FIG. 4).

For data set [2], the system named is CYP3A4 inducibility (luciferase reporter, CYP3A4 -362 to +11 fragment). The data set can be described thus: in vitro reporter (luciferase) assay, cultured cells infected with AdCYP3A4-362 virus. The conditions noted are these: 10 μM in DMSO, human liver-cancer-derived cultured cells. Here is the method:
(§2) A recombinant adenovirus was constructed through the following process.
(§3) Briefly, cells were seeded in a 24-well plate in an amount of 2.0×10^5 cells per well. On the following day; i.e., day 1, the cells were treated with a drug. On day 2, the drug-treated cells were infected with virus, and, 48 hours after viral infection, the cells were recovered. The recovered cells were lysed by use of a reporter lysis buffer (RLB), and the luciferase activity of the lysate was measured.
All these drugs are known to elicit CYP3A4 induction when administered to humans.

The test system of data set [3] is CYP3A4 inducibility (luciferase reporter AdCYP3A4-362-7K with hPXR expression). The data set can be described thus: in vitro reporter assay, cultured cells infected with virus (A) (AdCYP3A4-362-7K) and virus (B) (AdhPXR). The conditions noted are these: 10 μM, virus (A) AdCYP3A4-362-7K plus virus (B) AdhPXR. Here is the method: as §2, §3
(§4) Next, virus (B) (AdhPXR) was employed to thereby cause strong expression of hPXR.
(In general: Reporter assays use an easily measured gene product as a stand-in for the process of interest.)

For data set [4], the system named is CYP3A4 inducibility (luciferase reporter AdCYP3A4-362-7K). As to the kind of experiment: in vitro reporter assay, cultured cells infected with virus (A) (AdCYP3A4-362-7K). The conditions noted are these: 10 μM, without virus (B). Here is the method:
as §2, §3, §4

Data set [5] has as its system human CYP3A4 inducibility (luciferase reporter AdCYP3A4-362-7K with human PXR expression). The data set can be described thus: in vivo assay, mice infected with virus (A) (AdCYP3A4-362-7K) and virus (B) (AdhPXR). The settings on record: 100 mg/kg/day×3; virus (A) AdCYP3A4-362-7K, co-administration with virus (B) per FIG. 8. Here is the method:
as §1

Turning to `Clc1ccccc1C(c1ccccc1)(c1ccccc1)n1ccnc1` [clotrimazole], in data set [1], the “increase of luciferase activity in mouse liver S-9 compared with control” value is listed as “about nine”. Besides, the “elevated luciferase activity level” value in data set [2] is given as “about eight”. Moreover, in data set [3], the “luciferase activity relative to non-treatment” value amounted to 60 times. The “induction of luciferase activity” value in data set [4] is on record as 21 times. In addition, the “attained inducibility (transcription activation) in mice infected with virus (A)” value in data set [5] is on record as 1,000 times.
